{
  "source": "patent US12281363B2",
  "about": "“Methods for detecting antiviral-drug resistant virus” (Secretary of State for Health and Social Care, priority 2018, dated 2025)",
  "system": "HSV-1",
  "test": "Plaque reduction assay, HSV-1 clinical isolates on Vero cells",
  "format": "cell-based",
  "conditions": "Human alphaherpesvirus 1, Vero",
  "from_the_text": "Viral isolates were used to infect a sub-confluent monolayer of Vero cells at a concentration of 75 or 50 plaque forming units (PFU) per well for HSV-1 and HSV-2, respectively. […] CMC medium typically used to create a semisolid interface and prevents indiscrimate viral spreading. Other materials (e.g. agar) may also be used to create this interface.\nCells were fixed with 10% formalin and stained with crystal violet before enumeration of the plaques (microscopic observation or use of fluorescent antibodies for detection is also suitable). The data obtained from these experiments were then expressed as percent inhibition of viral infectivity relative to the no drug control.\nDefinitions of phenotypic drug susceptibility classification as sensitive or resistant were as follows: ACV, <3 μM or >40 μM; PCV, <10 μM or >40 μM; CDV, <24 μM or >30 μM; FOS, <250 μM or >400 μM; and ACV, <6.5 μM or >40 μM; PCV, <38 μM or >40 μM; FOS, <250 μM or >400 μM for HSV-1 and HSV-2, respectively. Any IC50 values falling in between these sensitive and resistant cut-offs were reported as intermediate resistance.\nThe phenotype (i.e. reactivity to a drug) of the virus was characterised by the plaque reduction assay as described above.",
  "note": "Read-outs that look alike come from different tables or passages of the source.",
  "data": [
    {"smiles": "Nc1nc2c(ncn2COCCO)c(=O)[nH]1", "note": "[Aciclovir, acyclovir]", "values": [
      {"measurement": "IC50", "setting": "72 h, isolate HPG053, HSV-1 pol L802R + A834S (2405T>G, 2500G>T), also TK R176W, read-out: Drug susceptibility (IC50 value)", "value": "> 40", "unit": "µM"},
      {"measurement": "IC50", "setting": "isolate HPG002, HSV-1 pol E992K (2974G>A), also TK insert (G) nt 430-436, pol A1169T, read-out: Drug susceptibility (IC50 value)", "value": 21.6, "unit": "µM"},
      {"measurement": "IC50", "setting": "isolate HPG003, HSV-1 TK Y172S (515A>C), read-out: Drug susceptibility (IC50 value)", "value": 28, "unit": "µM"},
      {"measurement": "IC50", "setting": "isolate HPG005, HSV-1 TK A37V (110C>T), read-out: Drug susceptibility (IC50 value)", "value": 1.46, "unit": "µM"},
      {"measurement": "IC50", "setting": "isolate HPG008, HSV-1 TK V204G (611T>G), read-out: Drug susceptibility (IC50 value)", "value": 22.5, "unit": "µM"},
      {"measurement": "IC50", "setting": "isolate HPG009, HSV-1 pol E992K (2974G>A), also pol A1169T, read-out: Drug susceptibility (IC50 value)", "value": 1.3, "unit": "µM"},
      {"measurement": "IC50", "setting": "isolate HPG010, HSV-1 TK Q125* (373C>T), read-out: Drug susceptibility (IC50 value)", "value": 9.21, "unit": "µM"},
      {"measurement": "IC50", "setting": "isolate HPG011, HSV-1 TK Q125* (373C>T), read-out: Drug susceptibility (IC50 value)", "value": 13.8, "unit": "µM"},
      {"measurement": "IC50", "setting": "isolate HPG013, HSV-1 TK M121I (363G>A), read-out: Drug susceptibility (IC50 value)", "value": 18.8, "unit": "µM"},
      {"measurement": "IC50", "setting": "isolate HPG013, HSV-1 pol D83A (248A>C), also TK M121I, pol A1169T, read-out: Drug susceptibility (IC50 value)", "value": 18.8, "unit": "µM"},
      {"measurement": "IC50", "setting": "isolate HPG014, HSV-1 pol A1115T (3343G>A), read-out: Drug susceptibility (IC50 value)", "value": 1.41, "unit": "µM"},
      {"measurement": "IC50", "setting": "isolate HPG014, HSV-1 pol R993C (2977C>T), read-out: Drug susceptibility (IC50 value)", "value": 1.41, "unit": "µM"},
      {"measurement": "IC50", "setting": "isolate HPG014, HSV-1 pol T54A (160A>G), read-out: Drug susceptibility (IC50 value)", "value": 1.41, "unit": "µM"},
      {"measurement": "IC50", "setting": "isolate HPG015, HSV-1 pol 966stop or F965_I966insF (2892_2893insT to 2895_2896insT), read-out: Drug susceptibility (IC50 value)", "value": 2.4, "unit": "µM"},
      {"measurement": "IC50", "setting": "isolate HPG018, HSV-1 TK frameshift (881delC to 885delC), read-out: Drug susceptibility (IC50 value)", "value": 24.7, "unit": "µM"},
      {"measurement": "IC50", "setting": "isolate HPG018, HSV-1 pol P1199T (3595C>A), also TK deletion (C) nt 881-885, pol A1169T, read-out: Drug susceptibility (IC50 value)", "value": 24.7, "unit": "µM"},
      {"measurement": "IC50", "setting": "isolate HPG019, HSV-1 pol K750T (2249A>C), also TK deletion (G) nt 430-436, pol A1169T, read-out: Drug susceptibility (IC50 value)", "value": "> 40", "unit": "µM"},
      {"measurement": "IC50", "setting": "isolate HPG020, HSV-1 pol S911N (2732G>A), also pol A1169T, read-out: Drug susceptibility (IC50 value)", "value": 0.56, "unit": "µM"},
      {"measurement": "IC50", "setting": "isolate HPG021, HSV-1 pol R681Q (2042G>A), also TK deletion (G) nt 430-436, read-out: Drug susceptibility (IC50 value)", "value": "> 40", "unit": "µM"},
      {"measurement": "IC50", "setting": "isolate HPG021, HSV-1 pol T839A (2515A>G), also TK deletion (G) nt 430-436, read-out: Drug susceptibility (IC50 value)", "value": "> 40", "unit": "µM"},
      {"measurement": "IC50", "setting": "isolate HPG025, HSV-1 pol E850Q (2548G>C), also TK R216C, read-out: Drug susceptibility (IC50 value)", "value": 22.2, "unit": "µM"},
      {"measurement": "IC50", "setting": "isolate HPG026, HSV-1 pol E850Q (2548G>C), also TK R216C, pol A1169T, read-out: Drug susceptibility (IC50 value)", "value": 18.1, "unit": "µM"},
      {"measurement": "IC50", "setting": "isolate HPG027, HSV-1 TK V204G (611T>G), also pol S914L, A1169AT, read-out: Drug susceptibility (IC50 value)", "value": "> 40", "unit": "µM"},
      {"measurement": "IC50", "setting": "isolate HPG027, HSV-1 pol S914L (2741C>T), also TK V204G, pol A1169T, read-out: Drug susceptibility (IC50 value)", "value": "> 40", "unit": "µM"},
      {"measurement": "IC50", "setting": "isolate HPG029, HSV-1 TK Y172S (515A>C), read-out: Drug susceptibility (IC50 value)", "value": "> 40", "unit": "µM"},
      {"measurement": "IC50", "setting": "isolate HPG031, HSV-1 pol E1120A (3359A>C), also a TK resistance mutation (footnote e), read-out: Drug susceptibility (IC50 value)", "value": 27.7, "unit": "µM"},
      {"measurement": "IC50", "setting": "isolate HPG031, HSV-1 pol G139R (415G>C or 415G>A), also a TK resistance mutation (footnote e), read-out: Drug susceptibility (IC50 value)", "value": 27.7, "unit": "µM"},
      {"measurement": "IC50", "setting": "isolate HPG032, HSV-1 TK 183* (437_438insA), read-out: Drug susceptibility (IC50 value)", "value": 27.4, "unit": "µM"},
      {"measurement": "IC50", "setting": "isolate HPG033, HSV-1 TK I358L (1072A>C), also TK T287M, read-out: Drug susceptibility (IC50 value)", "value": 38.9, "unit": "µM"},
      {"measurement": "IC50", "setting": "isolate HPG033, HSV-1 pol N1046T (3137A>C), also TK T287M, pol A1169T, read-out: Drug susceptibility (IC50 value)", "value": 38.9, "unit": "µM"},
      {"measurement": "IC50", "setting": "isolate HPG035, HSV-1 pol S239L (716C>T), also pol S724N, read-out: Drug susceptibility (IC50 value)", "value": 5.43, "unit": "µM"},
      {"measurement": "IC50", "setting": "isolate HPG037, HSV-1 TK R256W (766C>T), read-out: Drug susceptibility (IC50 value)", "value": 24.8, "unit": "µM"},
      {"measurement": "IC50", "setting": "isolate HPG037, HSV-1 TK Y239H (715T>C), read-out: Drug susceptibility (IC50 value)", "value": 24.8, "unit": "µM"},
      {"measurement": "IC50", "setting": "isolate HPG039, HSV-1 TK 85* or H58fs (169delC, 170delC, 171delC, or 172delC), read-out: Drug susceptibility (IC50 value)", "value": 25.6, "unit": "µM"},
      {"measurement": "IC50", "setting": "isolate HPG040, HSV-1 pol S911N (2732G>A), also TK deletion (C) nt 896-900, pol A1169T, read-out: Drug susceptibility (IC50 value)", "value": "> 40", "unit": "µM"},
      {"measurement": "IC50", "setting": "isolate HPG041, HSV-1 pol S911N (2732G>A), also pol A1169T, read-out: Drug susceptibility (IC50 value)", "value": 0.5, "unit": "µM"},
      {"measurement": "IC50", "setting": "isolate HPG042, HSV-1 pol A972V (2915C>T), also TK deletion (C) nt 881-885, pol A1169T, read-out: Drug susceptibility (IC50 value)", "value": "> 40", "unit": "µM"},
      {"measurement": "IC50", "setting": "isolate HPG042, HSV-1 pol G22R (64G>A), also TK deletion (C) nt 881-885, pol A1169T, read-out: Drug susceptibility (IC50 value)", "value": "> 40", "unit": "µM"},
      {"measurement": "IC50", "setting": "isolate HPG043, HSV-1 TK 183* (437_438insA), read-out: Drug susceptibility (IC50 value)", "value": 28.5, "unit": "µM"},
      {"measurement": "IC50", "setting": "isolate HPG045, HSV-1 TK L49R (146T>G), read-out: Drug susceptibility (IC50 value)", "value": 31.5, "unit": "µM"},
      {"measurement": "IC50", "setting": "isolate HPG045, HSV-1 pol L419I (1255C>A), also TK L49R, pol A1169T, read-out: Drug susceptibility (IC50 value)", "value": 31.5, "unit": "µM"},
      {"measurement": "IC50", "setting": "isolate HPG046, HSV-1 TK I166N (497T>A), read-out: Drug susceptibility (IC50 value)", "value": 11.4, "unit": "µM"},
      {"measurement": "IC50", "setting": "isolate HPG050, HSV-1 TK Q34* (100C>T), read-out: Drug susceptibility (IC50 value)", "value": "> 40", "unit": "µM"},
      {"measurement": "IC50", "setting": "isolate HPG051, HSV-1 pol D83A (248A>C), also TK R176stop, read-out: Drug susceptibility (IC50 value)", "value": 29.2, "unit": "µM"},
      {"measurement": "IC50", "setting": "isolate HPG052, HSV-1 TK Q34* (100C>T), read-out: Drug susceptibility (IC50 value)", "value": 8.45, "unit": "µM"},
      {"measurement": "IC50", "setting": "isolate HPG053, HSV-1 pol S911N (2732G>A), also TK R176W, pol A1169T, read-out: Drug susceptibility (IC50 value)", "value": "> 40", "unit": "µM"},
      {"measurement": "IC50", "setting": "isolate HPG054, HSV-1 pol E992K (2974G>A), also TK insert (G) nt 430-436, pol A1169T, read-out: Drug susceptibility (IC50 value)", "value": 8.25, "unit": "µM"},
      {"measurement": "IC50", "setting": "read-out: Drug susceptibility (IC50 value), isolate HPG005, HSV-1 TK A192T (574G>A)", "value": 1.46, "unit": "µM"},
      {"measurement": "IC50", "setting": "read-out: Drug susceptibility (IC50 value), isolate HPG006, HSV-1 pol G121S (361G>A), also a TK resistance mutation (footnote a)", "value": "> 40", "unit": "µM"},
      {"measurement": "IC50", "setting": "read-out: Drug susceptibility (IC50 value), isolate HPG012, HSV-1 pol G985E (2954G>A), also TK A93V", "value": "> 40", "unit": "µM"},
      {"measurement": "IC50", "setting": "read-out: Drug susceptibility (IC50 value), isolate HPG016, HSV-1 pol A1169T (3505G>A)", "value": 3.55, "unit": "µM"},
      {"measurement": "IC50", "setting": "read-out: Drug susceptibility (IC50 value), isolate HPG037, HSV-1 TK L69M (205>A), also TK Y239H", "value": 24.8, "unit": "µM"},
      {"measurement": "IC50", "setting": "read-out: Drug susceptibility (IC50 value), isolate HPG042, HSV-1 TK frameshift (881delC to 885delC)", "value": "> 40", "unit": "µM"},
      {"measurement": "IC50", "setting": "read-out: Drug susceptibility (IC50 value), isolate HPG047, HSV-1 pol E680 (2039A>C), also TK deletion (C) nt 548-553, pol A1169T", "value": 22.4, "unit": "µM"}
    ]}
  ]
}
